Reference: ChEMBL document CHEMBL1145580, “Synthesis of diketopiperazine-based carboline homodimers and in vitro growth inhibition of human carcinomas” (2008)

Tests used:
Type in all cases: functional
NCI-H520 [1] = assay: Cytotoxicity against human NCI-H520 cells assessed as cell survival at 10 uM relative to control; settings: read-out: Activity
NCI-H520 [2] = assay: Cytotoxicity against human NCI-H520 cells assessed as cell survival at 50 uM relative to control; settings: read-out: Activity
NCI-H520 [3] = assay: Cytotoxicity against human NCI-H520 cells assessed as cell survival at 100 uM relative to control; settings: read-out: Activity
PC-3 [4] = assay: Cytotoxicity against human PC3 cells assessed as cell survival at 10 uM relative to control; settings: read-out: Activity
PC-3 [5] = assay: Cytotoxicity against human PC3 cells assessed as cell survival at 50 uM relative to control; settings: read-out: Activity
PC-3 [6] = assay: Cytotoxicity against human PC3 cells assessed as cell survival at 100 uM relative to control; settings: read-out: Activity
NCI-H520 [7] = assay: Growth inhibition of human NCI-H520 cells
PC-3 [8] = assay: Growth inhibition of human PC3 cells

Structure (SMILES) | viability at 10 µM (NCI-H520 [1]) [%] | viability at 50 µM (NCI-H520 [2]) [%] | viability at 100 µM (NCI-H520 [3]) [%] | viability at 10 µM (PC-3 [4]) [%] | viability at 50 µM (PC-3 [5]) [%] | viability at 100 µM (PC-3 [6]) [%] | GI50 (NCI-H520 [7]) [µM] | GI50 (PC-3 [8]) [µM]
COc1cc([C@@H]2c3[nH]c4ccccc4c3C[C@H]3C(=O)N4[C@H](c5cc(OC)c(OCc6ccccc6)c(OC)c5)c5[nH]c6ccccc6c5C[C@H]4C(=O)N23)cc(OC)c1OCc1ccccc1 | 88.1 | 81.3 | 81 | 98.2 | 68.8 | 54.5 | – | –
COc1cc([C@@H]2c3[nH]c4ccccc4c3C[C@H]3C(=O)N4[C@H](c5cc(OC)c(OC)c(OC)c5)c5[nH]c6ccccc6c5C[C@H]4C(=O)N23)cc(OC)c1OC | 90.3 | 90.8 | 86.7 | 93 | 80.5 | 65 | – | –
COc1cc([C@H]2c3[nH]c4ccccc4c3C[C@@H]3C(=O)N4[C@@H](c5cc(OC)c(O)c(OC)c5)c5[nH]c6ccccc6c5C[C@@H]4C(=O)N23)cc(OC)c1O | 88.7 | 53.2 | 26.8 | > 100 | 43.6 | 15.7 | 61.5 | 55.3
COc1cc([C@H]2c3[nH]c4ccccc4c3C[C@@H]3C(=O)N4[C@@H](c5cc(OC)c(OCc6ccccc6)c(OC)c5)c5[nH]c6ccccc6c5C[C@@H]4C(=O)N23)cc(OC)c1OCc1ccccc1 | > 100 | > 100 | 84.5 | > 100 | 92.7 | 65.1 | – | –
CC(C)=CCc1[nH]c2ccccc2c1C[C@@H]1NC(=O)[C@H]2CCCN2C1=O | – | – | – | – | – | – | – | 12.3
COc1cc([C@H]2c3[nH]c4ccccc4c3C[C@@H]3C(=O)N4[C@@H](c5cc(OC)c(OC)c(OC)c5)c5[nH]c6ccccc6c5C[C@@H]4C(=O)N23)cc(OC)c1OC | 99.8 | 98.9 | 98.9 | > 100 | > 100 | 77.4 | – | –
COc1cc([C@@H]2c3[nH]c4ccccc4c3C[C@H]3C(=O)N4[C@H](c5cc(OC)c(O)c(OC)c5)c5[nH]c6ccccc6c5C[C@H]4C(=O)N23)cc(OC)c1O | 67.3 | 16.5 | 5.8 | 80.7 | 3.3 | 1.6 | 21.5 | 21.9
COc1cc([C@@H]2c3cc4c(cc3[C@@H](O[C@@H]3O[C@@H]5CO[C@@H](C)O[C@H]5[C@H](O)[C@H]3O)[C@H]3COC(=O)[C@H]23)OCO4)cc(OC)c1O [ETOPOSIDE] | 78.6 | 35.2 | 21.3 | 73.8 | 41.2 | 30.8 | 13.5 | 12.5
